Source: patent US7462643B1, “Essential fatty acids in the prevention of cardiovascular events” (Pfizer Italia S.R.L., priority 1999, dated 2008)

Test system: patients who have suffered from a myocardial infarction
Experiment: clinical trial of 3.5 years in infarcted patients on standard therapy, post-infarction mortality versus control group
Assay type: in vivo, human
Settings: added to standard therapy
From the text: The efficacy of the treatment, according to the invention, is, for instance, proven by the fact that a surprising and highly significant reduction in post-infarction mortality was observed by such treatment in a clinical trial that lasted for 3.5 years, with protocols substantially designed as follows: • 1 a “control” group received the standard therapy which is usually given to infarcted patients; • 2 a “treatment” group, besides the therapy that was given to the “control” group, received 85% EPA+DHA (1 g daily); • 3 a “treatment” group, besides the therapy that was given to the “control” group received vitamin E; and • 4 a “treatment” group, besides the therapy that was given to the control group, received vitamin E and 85% EPA+DHA (1 g daily). […] From the above clinical results, the person skilled in the art will appreciate that, the use of a pharmaceutical composition in accordance to the present invention is certainly useful in human therapy in preventing mortality in patients who have suffered from a myocardial infarction.

Question: With vitamin E as the substance, how does the “result on mortality as compared to the control group (in words)” value read?
Answer: no significant results
